Experimental data taken from US4288438A, “Nitrogen-containing heterocyclic ring derivatives and analgesic and anti-inflammatory compositions and methods employing them” (priority 1976, dated 1981).

Key:
writhings (acetic acid) = test: Whittle's method: acetic acid writhing, oral (Table 2); type: in vivo, Male ICR-Mice; conditions: mouse, 0.6% acetic acid i.p.
Description: (§1) Male ICR-Mice (weighting 25-35 g.), one group being 12 mice, fasted overnight were used in this test. The sample was orally administered, and 20 minutes after, 5 ml./Kg. of 0.4% Evance blue was injected by intravenously and further 10 minutes after, 10 ml./Kg. of 0.6% acetic acid was injected by intraperitoneally. The number of writhings after 20 minutes since the administration of acetic acid was recorded and 10 minutes after since then, the mice were killed by dislocation of the neck, the dye leaked in the abdominal cavity was washed out with 5 ml. of 0.9% saline to make the total amount 10 ml., and thereafter furs, blood corpuscles, etc., intermingled were removed by centrifugal separation at 3,000 r.p.m. for 5 minutes. Furthermore, for preventing turbidity caused by protein, 0.1 ml. of an aqueous 0.1 normal sodium hydroxide was added and then the absorbance at 590 nm was measured. The inhibition ratio of the sample administered rat groups to control groups was calculated.
(§2) In addition, the test samples used in the aforesaid tests (a), (b), (c) and (d) were prepared by suspending the test compounds, in the cases of using the compounds of Test Nos. 1,2,4,5,6,8,9,10,11, 16-21 and p henylbutazone,in an aqueous 0.5% methyl cellulose solution, dissolving the test compounds, in the cases of using the compounds of Test Nos. 13,14 and 15, in aqueous solution of 0.5% methyl cellulose, and further dissolving the test compounds, in the cases of using the compounds of Test Nos. 3,7 and 12 and aminopyrine, in distilled water.

[1] = tested on: Permeability (dye leaked in the abdominal cavity); test: Whittle's method: permeability, dye leaked in the abdominal cavity, oral (Table 2); type: in vivo, Male ICR-Mice
Description: (b) Whittle's method (British J. Pharmacol.; 22, 246-253 (1964))
as §1, §2

[2] = tested on: Hyperthemia caused by Brewer's yeast; test: Antipyretic effect, Brewer's yeast hyperthermia, rectal temperature (Table 3); type: in vivo, Male Wister rats; conditions: rat, 50mg/kg p.o., in °C (unit assumed); for Rectal temperature (mean ± SE) 1 hour / Rectal temperature (mean ± SE) 2 hours / Rectal temperature (mean ± SE) 4 hours: * p<0.05 vs before for Test Nos. 1, 2 and Aminopyrine; for Rectal temperature (mean ± SE) 6 hours: * p<0.05 vs before for Test No. 2 and Aminopyrine; for Rectal temperature (mean ± SE) before: before administration
Description: Male Wister rats (weighting 130-150 g.), one group being 5 rats, were used. Hyperthemia was caused by subcutaneous injection of 2 ml./rat of 20% Brewer's yeast suspension. 18 hours later, the rats showing a rise in temperature exceeding 1° C. were selected and allocated into groups each consisting of 5 rats. The sample was orally administered and then the body temperature was measured with the passage of time for 6 hours since then. In addition, the body temperature was measured by measuring the temperature in the rectum by means of a thermister thermometer.
as §2

[3] = tested on: Carrageenin-induced edema; test: Carrageenin-induced edema, hind paw, oral (Table 1); type: in vivo, Male Wister rats; conditions: rat, 1 hour before Carrageenin, edema weight after 3 hours; for inhibition in vivo at 50 mg/kg: po; for Inhibition (%) p.o. 50mg/kg / inhibition in vivo at 50 mg/kg: p.o. 50 mg/kg
Description: (a) Carrageenin-induced edema
Male Wister rats (weighting 130-170 g.), one group being 6 rats, fasted overnight were used. According to […] [Proc. Soc. […] After 3 hours, each rat was sacrificed by chloroform and the hind paw was cut and weighed immediately. By using the value obtained by subtracting the weight of the untreated hind paw from the weight of the hind paw having injected therein the Carrageenin as the weight of edema, the inhibitory ratio of the sample administered rat groups to control groups was calculated. The sample was orally administered one hour before the injection of Carrageenin.
as §2

[4] = Acute toxicity, mouse (Table 4); type: in vivo
[5] = Acute toxicity, rat (Table 4); type: in vivo, Male Wister rats; conditions: 500 mg/Kg oral, 7 days, deaths/animals
Description: Male Wister rats (weighting 130-170 g.), one group being 5 rats, fasted overnight were used in this test.
as §2

[6] = mouse, 25 mg/kg p.o., Evance blue i.v., acetic acid i.p., 590 nm
[7] = mouse, 50 mg/kg p.o., Evance blue i.v., acetic acid i.p., 590 nm
[8] = deaths/animals, method given for rats only (500 mg/Kg oral, 7 days)

SMILES: Cc1c(N(C)C)c(=O)n(-c2ccccc2)n1C [Aminopyrine, reference compound]
- Inhibition (%) Writhing S 25mg/kg p.o. (writhings (acetic acid)): 29.6%
- Inhibition (%) Writhing S 50mg/kg p.o. (writhings (acetic acid)): 58.1%
- Inhibition (%) Permeability 25mg/kg p.o. [1, 6]: 28.5%
- Inhibition (%) Permeability 50mg/kg p.o. [1, 7]: 41.7%
- Rectal temperature (mean ± SE) 1 hour [2]: 37.92 ± 0.09
- Rectal temperature (mean ± SE) 2 hours [2]: 37.49 ± 0.10
- Rectal temperature (mean ± SE) 4 hours [2]: 37.39 ± 0.07
- Rectal temperature (mean ± SE) 6 hours [2]: 37.76 ± 0.18
- Rectal temperature (mean ± SE) before [2]: 39.24 ± 0.14

SMILES: CN1CCCn2c1cc(-c1ccccc1)cc2=O [Test No. 1]
- Inhibition (%) Writhing S 25mg/kg p.o. (writhings (acetic acid)): 41.8%
- Inhibition (%) Writhing S 50mg/kg p.o. (writhings (acetic acid)): 87.6%
- Inhibition (%) Permeability 25mg/kg p.o. [1, 6]: 18.0%
- Inhibition (%) Permeability 50mg/kg p.o. [1, 7]: 44.4%
- Rectal temperature (mean ± SE) 1 hour [2]: 37.07 ± 0.15
- Rectal temperature (mean ± SE) 2 hours [2]: 36.17 ± 0.32
- Rectal temperature (mean ± SE) 4 hours [2]: 36.12 ± 0.17
- Rectal temperature (mean ± SE) 6 hours [2]: 38.52 ± 0.47
- Rectal temperature (mean ± SE) before [2]: 38.82 ± 0.05
- Inhibition (%) p.o. 50mg/kg [3]: 71.5%

SMILES: O=c1cc(-c2ccccc2)cc2n1CCN2 [Test No. 2]
- Number of deaths Mouse ([4]; in vivo): 0/5
- Inhibition (%) Writhing S 25mg/kg p.o. (writhings (acetic acid)): 28.9%
- Inhibition (%) Writhing S 50mg/kg p.o. (writhings (acetic acid)): 52.6%
- Inhibition (%) Permeability 25mg/kg p.o. [1, 6]: 26.9%
- Inhibition (%) Permeability 50mg/kg p.o. [1, 7]: 51.1%
- Rectal temperature (mean ± SE) 1 hour [2]: 37.80 ± 0.10
- Rectal temperature (mean ± SE) 2 hours [2]: 36.74 ± 0.24
- Rectal temperature (mean ± SE) 4 hours [2]: 36.77 ± 0.39
- Rectal temperature (mean ± SE) 6 hours [2]: 37.51 ± 0.57
- Rectal temperature (mean ± SE) before [2]: 38.89 ± 0.21
- Inhibition (%) p.o. 50mg/kg [3]: 71.6%
- Inhibition (%) p.o. 100mg/kg [3]: 76.1%

SMILES: Cc1cc2n(c(=O)c1)CCN2C [Test No. 3, 1,7-dimethyl-5-oxo-1,2,3,5-tetrahydroimidazo[1,2-a]pyridine]
- Number of deaths Mouse [4, 8]: 1/5
- Inhibition (%) Writhing S 25mg/kg p.o. (writhings (acetic acid)): 52.1%
- Inhibition (%) Writhing S 50mg/kg p.o. (writhings (acetic acid)): 75.3%
- Inhibition (%) Permeability 25mg/kg p.o. [1, 6]: 18.5%
- Inhibition (%) Permeability 50mg/kg p.o. [1, 7]: 46.2%
- inhibition in vivo at 50 mg/kg [3]: 52.3%
- Inhibition (%) p.o. 100mg/kg [3]: 51.5%

SMILES: O=c1cc(-c2ccccc2)cc2n1CC[S+]2[O-] (centres unmarked) [Test No. 4]
- Number of deaths Mouse [4, 8]: 1/5
- Number of deaths Rat [5]: 2/5

SMILES: CN1CCn2c1cc(-c1ccccc1)cc2=O [Test No. 5]
- Inhibition (%) Writhing S 25mg/kg p.o. (writhings (acetic acid)): 41.2%
- Inhibition (%) Writhing S 50mg/kg p.o. (writhings (acetic acid)): 67.4%
- Inhibition (%) Permeability 25mg/kg p.o. [1, 6]: 20.0%
- Inhibition (%) Permeability 50mg/kg p.o. [1, 7]: 42.1%

SMILES: O=c1cc(-c2ccccc2)cc2n1CCCN2 [Test No. 6]
- Inhibition (%) Writhing S 25mg/kg p.o. (writhings (acetic acid)): 69.0%
- Inhibition (%) Writhing S 50mg/kg p.o. (writhings (acetic acid)): 91.5%
- Inhibition (%) Permeability 25mg/kg p.o. [1, 6]: 28.4%
- Inhibition (%) Permeability 50mg/kg p.o. [1, 7]: 59.0%
- Inhibition (%) p.o. 50mg/kg [3]: 72.7%
- Inhibition (%) p.o. 100mg/kg [3]: 80.5%

SMILES: CN1CCn2c1ccc(-c1ccccc1)c2=O [Test No. 7, 1-methyl-5-oxo-6-phenyl-1,2,3,5-tetrahydroimidazo[1,2-a]pyridine]
- Inhibition (%) Writhing S 25mg/kg p.o. (writhings (acetic acid)): 59.1%
- Inhibition (%) Writhing S 50mg/kg p.o. (writhings (acetic acid)): 95.3%
- Inhibition (%) Permeability 25mg/kg p.o. [1, 6]: 49.3%
- Inhibition (%) Permeability 50mg/kg p.o. [1, 7]: 63.8%
- inhibition in vivo at 50 mg/kg [3]: 75%
- Inhibition (%) p.o. 100mg/kg [3]: 79.5%

SMILES: Cc1cc2n(c(=O)c1)CCCN2C [Test No. 8]
- Inhibition (%) Writhing S 25mg/kg p.o. (writhings (acetic acid)): 35.6%
- Inhibition (%) Writhing S 50mg/kg p.o. (writhings (acetic acid)): 66.4%
- Inhibition (%) Permeability 25mg/kg p.o. ([1]; 25 mg/kg): 32.4%
- Inhibition (%) Permeability 50mg/kg p.o. ([1]; 50 mg/kg): 25.8%
- Inhibition (%) p.o. 50mg/kg [3]: 53.3%

SMILES: CCN1CCn2c1cc(-c1ccccc1)cc2=O [Test No. 9]
- Number of deaths Mouse [4, 8]: 0/5
- Number of deaths Rat [5]: 0/5

SMILES: O=c1cc(-c2ccccc2)cc2n1CCS2 [Test No. 10]
- Number of deaths Mouse [4, 8]: 0/5
- Number of deaths Rat [5]: 0/5

SMILES: CN1CCCn2c1cc(-c1ccc(Cl)cc1)cc2=O [Test No. 11]
- Inhibition (%) p.o. 50mg/kg [3]: 47.1%

SMILES: CN1CCn2c1cc1c(c2=O)CCC1 [Test No. 13, 1-methyl-5-oxo-1,2,3,6,7,8-hexahydroimidazo[1,2-b]1H-2-pyrindine]
- Inhibition (%) p.o. 50mg/kg [3]: 57.1%

SMILES: CN1CCn2c1cc1c(c2=O)CCCC1 [Test No. 14, 1-methyl-5-oxo-1,2,3,5,6,7,8,9-octahydroimidazo[1,2-b]isoquinoline]
- inhibition in vivo at 50 mg/kg [3]: 64.1%

SMILES: CN1CCCn2c1cc1c(c2=O)CCCC1 [Test No. 15, 1-methyl-6-oxo-1,2,3,4,6,7,8,9,10-nonahydropyrimido[1,2-b]isoquinoline]
- inhibition in vivo at 50 mg/kg [3]: 52.4%

SMILES: Cc1cc2n(c(=O)c1-c1ccccc1)CCN2C [Test No. 16, 1,7-dimethyl-5-oxo-6-phenyl-1,2,3,5-tetrahydroimidazo[1,2-a]pyridine]
- inhibition in vivo at 50 mg/kg [3]: 47.7%

SMILES: Cc1c(-c2ccccc2)cc2n(c1=O)CCCN2C [Test No. 17, 1,7-dimethyl-6-oxo-8-phenyl-1,2,3,4,6-pentahydropyrido[1,2-a]pyrimidine]
- inhibition in vivo at 50 mg/kg [3]: 45.7%

SMILES: Cc1cc(=O)n2c(c1-c1ccccc1)N(C)CC2 [Test No. 18, 1,7-dimethyl-5-oxo-8-phenyl-1,2,3,5-tetrahydroimidazo[1,2-a]pyridine]
- Inhibition (%) p.o. 100mg/kg [3]: 41.0%

SMILES: Cc1cc(=O)n2c(c1-c1ccccc1)NCCC2 [Test No. 19]
- Inhibition (%) p.o. 100mg/kg [3]: 46.7%

SMILES: CC1CNc2cc(-c3ccccc3)cc(=O)n21 (centres unmarked) [Test No. 20]
- Inhibition (%) p.o. 50mg/kg [3]: 72.2%

SMILES: O=c1cc(-c2ccccc2)cc2sccn12 [Test No. 21]
- Inhibition (%) p.o. 50mg/kg [3]: 46.9%

SMILES: CCCCC1C(=O)N(c2ccccc2)N(c2ccccc2)C1=O [phenylbutazone, reference compound]
- inhibition in vivo at 50 mg/kg [3]: 44.5%
- Inhibition (%) p.o. 100mg/kg [3]: 51.2%
